# US20070026090A1, “Treatment and prevention of inflammatory disease and mitochondrial dysfunction with high dose selenium” (priority 2003, published 2007)
# Tests used:
# cytochrome c = test: Cytochrome c protein in colon tissue (Western blot); format: in vivo, rat
# Excerpt: Western blotting—analysis of Cytochrome c: Colon tissue samples were boiled and kept in sample buffer (Sigma-Aldrich Corp., St Louis, Mo.) immediately following isolation. For electrophoretic separation and immunodetection, the samples were reboiled, and subjected to SDS-PAGE followed by Western blot analysis. Briefly, separated proteins were transferred electrophoretically from the gel to a nitrocellulose membrane (Amersham International plc, Buckinghamshire, England). The membrane was blocked in TBS (0.15 M NaCl/10 mM Tris/HCl [pH7.4]) containing 5% (v/v) skim milk (Blotto), then incubated overnight with the primary antibody at 4° C. (diluted 1/1000 in Blotto). Following six washes in TBST (TBS containing 0.05% v/v Tween 20), the membrane was incubated for 2 hours at room temperature with the secondary antibody (diluted 1/1000 in Blotto). Immunoreactive bands were detected with ECL western blotting detection reagents and developed on film (Shilo et al., 2003). Separated proteins were transferred electrophoretically from the gel to a nitrocellulose membrane (Amersham International plc, Buckinghamshire, England). […] Immunoreactive bands were visualized by detection with ECL Western blotting detection reagents (ECL, Amersham Biosciences, Uppsala, Sweden) followed by exposure of film and quantitation by densitometry (Shilo et al., 2003).
# mtTFA = mtTFA mRNA in colon tissue (RT-PCR); format: in vivo, rat
# Description: Mitochondrial (mt) TFA, NRF1, and cytochrome c mRNA analysis: Total RNA was extracted from 50 to 100 mg tissue at a time using 1 ml of Tri Reagent® (Sigma-Aldrich Corp., St. Louis, Mo.) according to manufacturer's instructions. First strand cDNA synthesis was carried out using reverse-iTTM First Strand Synthesis from Advanced Biotechnologies (ABgene®, ABgene, Epsom, U.K.) was used according to the manufacturer's instructions. Target sequences were amplified in the PCR reaction as follows: each tube contained 37 ng of cDNA from cytochrome c, GAPDH, or 18S, 3 μl of specific primers, 12.5 μl of ready Mix and 6.5 μl water DEPC (for a total 25 μl in each tube).
# The PCR for cytochrome c, NRF1 and mtTFA was run at 95° C. for 5 min, 94° C. for 30 sec, 56° C. for 2 min, 72° C. for 1 min, back to stage 2 for 22, 26, 24 cycles, respectively, then 72° C. for 10 min, and 4° C. The products of the PCR were separated on a 1% agarose gel in TAE buffer with ethidium bromide. The electrophoresis took place in a BioRad device in 1×TAE buffer at 95 V for about 50 min (maximum mA). The size of the cDNA was determined by a 100-bp marker.
# Rat mtTFA: (Antisense) 5′-[…]-3′ (SEQ ID No. 15) corresponding to nucleotides 756 to 777 of rat mtMTFA (GenBank Accession No. AJ312746).
# (Sense): 5′-[…]-3′ (SEQ ID No. 16). The expected PCR product was 417 bp, the actual 417 bp.
# NF-κB = NF-κB binding in vitro, selenite added to nuclear extract (EMSA); parameters: species or system murine; settings: 5 μM added to nuclear extract 5 minutes before (FIG. 12B)
# Description: Electromobility shift assay (EMSA)—Gel shift assays were performed according to the gel shift assay protocol from Promega Corp. (San Luis Obispo, Calif.). […] For each reaction, 2 μg of nuclear extract were incubated with 2 μl of 5× binding buffer for 5 min., 1 μl of the ^32P-labeled oligonucleotide was added at room temperature for 20 min., the samples were prepared by adding 1 μl of dye free loading buffer, and separated using 6% non-denaturing acrylamide gel electrophoresis. […]
# Sp1 = Sp1 binding in vitro, selenite added to nuclear extract (EMSA); parameters: species or system murine; settings: 5 μM added to nuclear extract 5 minutes before (FIG. 13C)
# Description: Nuclear extracts: Nuclear Extracts were prepared using a slight modification of the method of Dignam et al (23). Treated cells were washed with cold PBS, scraped and centrifuged. Hypotonic buffer (1 ml, 20 mM HEPES pH 7.0, 10 mM KCl, 1 mM mGCl2, 0.5 mM DTT, 0.1% Triton X-100, 20% glycerol, 2 mM PMSP, 1 mg/ml Aprotonin and Leupeptin) was added to the cell pellets, the pellets were disrupted by pipetting, and centrifuged 3000 RPM for 5 min. The pellets were re-suspended in 100 μl cold extraction buffer (20 mM HEPES pH 7.0, 10 mM KCl, 1 mM mGCl2, 0.5 mM DTT, 0.1% Triton X-100, 20% glycerol, 2 mM PMSF, 1 mg/ml Aprotonin and Leupeptin, 420 mM NaCl). The samples were rotated for 20 min at 4° C., centrifuged 15,000 RPM for 10 min, and supernatants collected. Protein content was measured using Bradford reagent. Samples were stored frozen at minus 70° C.
# Electromobility shift assay (EMSA)—Gel shift assays were performed according to the gel shift assay protocol from Promega Corp. (San Luis Obispo, Calif.). A 22-mer double-stranded NF-κB consensus oligonucleotide 5′-[…]-3′ (SEQ ID NO:3), and Sp1 consensus oligonucleotide 5′-[…]-3(SEQ ID NO:4), were labeled with 32P. […]
structure (smiles),measurement,setting,value
[Se] [selenium],inflammation-associated alterations of cytochrome c protein,"cytochrome c; 24 h after TNBS, supplemented (FIG. 7B lane 4 vs lane 3)",completely prevented
same,"characteristics of cytochrome c protein, healthy uninduced rats",cytochrome c; FIG. 7B lane 1 vs lane 2,no effect
same,"mtTFA levels in colon tissue, colitis-induced rats","mtTFA; 24 h after TNBS, supplemented (FIG. 17 lane 4), unsupplemented nearly absolute loss",surpass that of healthy control rats
same,"mtTFA levels in colon tissue, healthy rats",mtTFA; healthy supplemented rats (FIG. 17 lane 2),significantly enhances
same,NF-κB binding in vitro,NF-κB,directly inhibited
same,Sp-1 binding in vitro,Sp1,directly inhibited
